# Data published in patent publication US20240066119A1, “METHODS AND PLATFORMS FOR ELICITING AN IMMUNE RESPONSE IN THE TREATMENT OF CANCER AND COMPOSITIONS AND VACCINES RELATING THERETO” (University of Maryland, College Park, priority 2021, published 2024).
# Tested on: lymphocyte egress from lymphoid tissues
# Assay: Inhibition of lymphocyte trafficking with FTY720
# Assay type: in vivo, C57BL6 mice
# Settings: FTY720 1 mg/kg daily i.p., day 7 after vaccination
# Experimental: Investigation of Adjuvant-Involvement on Split LN Treatments and Effect of Inhibition of Lymphocyte Trafficking on Antigen Specificity. To determine the influence of adjuvant (PolyIC) delivery in the Split LN treatment group on antigen-specificity as quantified by SIINFEKL tetramer, mice were treated as described above for Split LN treatment with soluble OVA and either PolyIC MPs or with PBS. Antigen-specific CD8^+ T cells in the blood and LNs were quantified using SIINFEKL tetramer as described above. Antigen-specific T cells were reported as a percentage of Live, CD8^+ cells. In studies to determine the effect of lymphocyte trafficking on local and systemic antigen-specificity, FTY720 (Sigma) was administered daily at 1 mg/kg via intraperitoneal injection one day prior to vaccination until the end of the experiment (7 days after vaccination). Following vaccination, antigen-specific CD8^+ T cells in the blood and LNs were quantified using SIINFEKL tetramer as described above and reported as a percentage of Live, CD8^+ cells and an overall number of cells from an identical acquisition volume (80 μL).
smiles,measurement,value
CCCCCCCCc1ccc(CCC(N)(CO)CO)cc1 [FTY720],number of antigen-specific T cells in blood,greatly diminished
same,percentage of antigen-specific T cells in blood,did not significantly change
